The source of these data is patent publication US9296723B2, “NAMPT inhibitors” (AbbVie Inc., priority 2012, dated 2016).

In assay [1] the target is T1, NAMPT (Homo sapiens, UniProt P43490). Description: Time-Resolved Fluorescence Resonance Energy Transfer (TR-FRET) Binding Assay of NAMPT. The settings on record: 6.8 nM NAMPT, 200 nM probe, equilibrated 3 hours, no substrates. Put shortly: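 IC50s come from four-parameter logistic fits of control-normalized Em520/Em495 TR-FRET ratios (Ex 337 nm) against compound concentration. Before reading, enzyme, probe, antibody and compound equilibrated for 3 h at room temperature.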
T1 sequence (P43490 whole entry): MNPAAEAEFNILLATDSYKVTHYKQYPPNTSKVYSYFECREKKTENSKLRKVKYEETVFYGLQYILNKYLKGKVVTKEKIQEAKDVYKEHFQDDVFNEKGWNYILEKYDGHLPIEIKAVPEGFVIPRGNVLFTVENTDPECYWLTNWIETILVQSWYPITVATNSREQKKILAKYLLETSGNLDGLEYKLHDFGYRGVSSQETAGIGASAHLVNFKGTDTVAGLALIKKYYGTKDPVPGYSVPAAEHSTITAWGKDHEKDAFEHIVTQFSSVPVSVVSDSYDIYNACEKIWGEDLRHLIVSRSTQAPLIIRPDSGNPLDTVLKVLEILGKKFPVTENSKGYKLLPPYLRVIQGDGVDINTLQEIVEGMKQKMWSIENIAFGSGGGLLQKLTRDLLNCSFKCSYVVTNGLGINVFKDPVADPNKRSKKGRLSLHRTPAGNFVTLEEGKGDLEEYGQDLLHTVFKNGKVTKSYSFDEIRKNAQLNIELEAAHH

Assay [2] deals with T1, NAMPT. Description: TR-FRET Binding Assay of NAMPT with PRPP. The settings on record: 2 nM NAMPT, 2 nM probe, 200 µM PRPP and 2.5 mM ATP, equilibrated 16 hours. On the procedure: Time-Resolved Fluorescence Resonance Energy Transfer (TR-FRET) Binding Assay of NAMPT with PRPP
Compound handling and data processing were identical to the assay in the absence of substrates (above). Final concentrations were 1× assay buffer, 2% DMSO, 2 nM NAMPT, 2 nM probe, 1 nM Tb-anti-His antibody (Invitrogen #PV5895), 200 µM PRPP and 2.5 mM ATP. Reactions were equilibrated for 16 hours prior to measurement to allow for potential enzymatic modification of test compounds.

Assay [3] deals with PC3 cells. As to the kind of experiment: NAMPT Cell Proliferation Assay (Cell Titer Glo). In kind it is cell-based. The settings on record: Homo sapiens, PC-3, 120 h, incubated 5 days, cell viability. Put shortly:
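Viability measured by Cell Titer Glo luminescence after 5-day exposure of attached PC3 cells to compound, dosed as 10-fold serial dilutions ([…]) in RPMI/10% FBS at 37 °C and 5% CO2. Percent inhibition fitted to sigmoidal dose-response curves for IC50.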

For the compound `CCC(C)CC(=O)N1CC(Oc2ccc(NC(=O)N3CC(c4cccnc4)C3)cc2)C1` (stereo not drawn) [Example 121, N-(4-{[1-(3-methylpentanoyl)azetidin-3-yl]oxy}phenyl)-3-(pyridin-3-yl)azetidine-1-carboxamide], the results for the concentration for half-maximal inhibition (IC50) in assay [1], in assay [2] and in assay [3] were 18.6 nM, 0.497 nM and 7.73 nM, respectively.
In the case of `CC1(C(=O)N2CCC(c3ccc(NC(=O)N4CC(c5cccnc5)C4)cc3)CC2)CCCCC1` [Example 181, N-(4-{1-[(1-methylcyclohexyl)carbonyl]piperidin-4-yl}phenyl)-3-(pyridin-3-yl)azetidine-1-carboxamide], the values for the IC50 in assay [1], in assay [2] and in assay [3] were 8.06 nM, 0.256 nM and 24.3 nM, respectively.
As to `O=C(CC1CCCCC1)N1CC(Oc2ccc(NC(=O)N3CC(c4cccnc4)C3)cc2)C1` [Example 138, N-(4-{[1-(cyclohexylacetyl)azetidin-3-yl]oxy}phenyl)-3-(pyridin-3-yl)azetidine-1-carboxamide], the IC50 in assay [1] was found to be 11.4 nM; in assay [2], 0.596 nM; in assay [3] it was 8.38 nM.
Turning to `O=C(Nc1ccc(C2CN(CC3CCCCC3)C2)cc1)N1CC(c2cccnc2)C1` [Example 246, N-{4-[1-(cyclohexylmethyl)azetidin-3-yl]phenyl}-3-(pyridin-3-yl)azetidine-1-carboxamide], the IC50 in assay [1] came to 437 nM; in assay [2], 0.213 nM; in assay [3], 622 nM.
In the case of `CC(C)CC(=O)N1CC[C@@H](Oc2ccc(NC(=O)N3CC(c4cccnc4)C3)cc2)C1` [Example 333, N-(4-{[(3R)-1-(3-methylbutanoyl)pyrrolidin-3-yl]oxy}phenyl)-3-(pyridin-3-yl)azetidine-1-carboxamide], the IC50 came out at 56.1 nM in assay [1], 0.416 nM in assay [2] and 22.4 nM in assay [3].
The like results for `O=C(Nc1ccc(C2CN(C(=O)c3ccccc3)C2)cc1)N1CC(c2cccnc2)C1` [Example 107, N-[4-(1-benzoylazetidin-3-yl)phenyl]-3-(pyridin-3-yl)azetidine-1-carboxamide] were, in that order, 12.3 nM, 0.342 nM and 5.99 nM.
On to `CC(C)(O)C(=O)N1CCC(c2ccc(NC(=O)N3CC(c4cccnc4)C3)cc2)CC1` [Example 51, N-{4-[1-(2-hydroxy-2-methylpropanoyl)piperidin-4-yl]phenyl}-3-(pyridin-3-yl)azetidine-1-carboxamide], for which the IC50 in assay [1] amounted to 17.2 nM; in assay [2], 0.303 nM; in assay [3] it was 1.78 nM.
In the case of `CCC(=O)N1CC(Oc2ccc(NC(=O)N3CC(c4cccnc4)C3)cc2)C1` [Example 130, N-{4-[(1-propanoylazetidin-3-yl)oxy]phenyl}-3-(pyridin-3-yl)azetidine-1-carboxamide], the figures for the IC50 in assay [1], in assay [2] and in assay [3] were 84.7 nM, 0.559 nM and 78.7 nM, respectively.
For `O=C(NCC1CCOC1)c1ccc(NC(=O)N2CC(c3cccnc3)C2)cc1` (stereo not drawn) [Example 49, 3-(pyridin-3-yl)-N-{4-[(tetrahydrofuran-3-ylmethyl)carbamoyl]phenyl}azetidine-1-carboxamide], in that order: 150 nM, 0.245 nM and 80.1 nM.
`O=C(Nc1ccc(C2CN(C(=O)[C@H]3CCCO3)C2)cc1)N1CC(c2cccnc2)C1` [Example 103, 3-(pyridin-3-yl)-N-(4-{1-[(2R)-tetrahydrofuran-2-ylcarbonyl]azetidin-3-yl}phenyl)azetidine-1-carboxamide]: the IC50 in assay [1] is 296 nM; in assay [2], 0.287 nM; in assay [3] it was 98.1 nM.
Take `O=C(CC1CCOCC1)N1CCC(c2ccc(NC(=O)N3CC(c4cccnc4)C3)cc2)C1` (stereo not drawn) [Example 64, 3-(pyridin-3-yl)-N-{4-[1-(tetrahydro-2H-pyran-4-ylacetyl)pyrrolidin-3-yl]phenyl}azetidine-1-carboxamide]: the IC50 in assay [1] stood at 52.1 nM; in assay [2] it was 0.171 nM; in assay [3] it was 71.1 nM.
Take `CC(=O)N[C@@H](CC(C)C)C(=O)N1CC[C@@H](Oc2ccc(NC(=O)N3CC(c4cccnc4)C3)cc2)C1` [Example 318, N-(4-{[(3R)-1-(N-acetyl-L-leucyl)pyrrolidin-3-yl]oxy}phenyl)-3-(pyridin-3-yl)azetidine-1-carboxamide]: the values for the IC50 in assay [1], in assay [2] and in assay [3] were 125 nM, 0.419 nM and 156 nM, respectively.
Take `O=C(CCC(F)(F)F)N1CC[C@@H](Oc2ccc(NC(=O)N3CC(c4cccnc4)C3)cc2)C1` [Example 311, 3-(pyridin-3-yl)-N-(4-{[(3R)-1-(4,4,4-trifluorobutanoyl)pyrrolidin-3-yl]oxy}phenyl)azetidine-1-carboxamide]: the IC50 is 144 nM in assay [1], 0.592 nM in assay [2] and 47.1 nM in assay [3].
As for `O=C(Nc1ccc(OC2CN(C(=O)c3ccno3)C2)cc1)N1CC(c2cccnc2)C1` [Example 148, N-(4-{[1-(1,2-oxazol-5-ylcarbonyl)azetidin-3-yl]oxy}phenyl)-3-(pyridin-3-yl)azetidine-1-carboxamide], the IC50 in assay [1] amounted to 27.7 nM; in assay [2] it was 0.321 nM; in assay [3] it was 16.7 nM.
Regarding `CCCN1CCC(c2ccc(NC(=O)N3CC(c4cccnc4)C3)cc2)CC1` [Example 241, N-[4-(1-propylpiperidin-4-yl)phenyl]-3-(pyridin-3-yl)azetidine-1-carboxamide], the IC50 in assay [1] was 359 nM; in assay [2] it was 0.255 nM; in assay [3] it was 252 nM.
Regarding `CCCCC(=O)N1CC(c2ccc(NC(=O)N3CC(c4cccnc4)C3)cc2)C1` [Example 198, N-[4-(1-pentanoylazetidin-3-yl)phenyl]-3-(pyridin-3-yl)azetidine-1-carboxamide], the concentration for half-maximal inhibition (IC50) in assay [1] was determined as 64.2 nM; in assay [2], 0.341 nM; in assay [3], 47.6 nM.
As for `O=C(Nc1ccc(C2CCN(CC3CCCC3)CC2)cc1)N1CC(c2cccnc2)C1` [Example 231, N-{4-[1-(cyclopentylmethyl)piperidin-4-yl]phenyl}-3-(pyridin-3-yl)azetidine-1-carboxamide], the values for the IC50 in assay [1], in assay [2] and in assay [3] were 421 nM, 0.225 nM and 361 nM, respectively.
Consider `CC(C)(C)CC(=O)N1CCC(c2ccc(NC(=O)N3CC(c4cccnc4)C3)cc2)C1` (stereo not drawn) [Example 289, N-{4-[1-(3,3-dimethylbutanoyl)pyrrolidin-3-yl]phenyl}-3-(pyridin-3-yl)azetidine-1-carboxamide], for which the IC50 in assay [1] is 29.6 nM; in assay [2], 0.204 nM; in assay [3] it was 35.2 nM.
Regarding `O=C(CC1CCCCC1)N1CC[C@@H](Oc2ccc(NC(=O)N3CC(c4cccnc4)C3)cc2)C1` [Example 317, N-(4-{[(3R)-1-(cyclohexylacetyl)pyrrolidin-3-yl]oxy}phenyl)-3-(pyridin-3-yl)azetidine-1-carboxamide], the IC50 in assay [1] is 29.9 nM; in assay [2], 0.207 nM; in assay [3] it was 55.4 nM.
Consider `Cc1noc(C)c1C(=O)N1CC(Oc2ccc(NC(=O)N3CC(c4cccnc4)C3)cc2)C1` [Example 145, N-[4-({1-[(3,5-dimethyl-1,2-oxazol-4-yl)carbonyl]azetidin-3-yl}oxy)phenyl]-3-(pyridin-3-yl)azetidine-1-carboxamide], for which the IC50 in assay [1] turned out to be 90.5 nM; in assay [2], 0.6 nM; in assay [3] it was 73.9 nM.
